The text below walks through data of PMC11766267 (International Journal of Molecular Sciences, 2025).

For data set [1], the system named is MCF-7. The data set can be described thus: MTT cytotoxicity assay, MCF-7. As to conditions: 24 h treatment, mean ± SD of triplicate. The format is cell-based, human. The method, then: (§1) Subsequently, 100 µL of dimethyl sulfoxide was introduced to dissolve the insoluble formazan.
In general terms: Formazan colour is commonly taken as a measure of viable cells.

In data set [2] the test system is HCT-116. The data set can be described thus: MTT cytotoxicity assay, HCT-116. The format is cell-based. The following applies: Homo sapiens, 24 h treatment, mean ± SD of triplicate. On the procedure: as §1
Data set [3] relates to HeLa. The data set can be described thus: MTT cytotoxicity assay, HeLa. The format is cell-based. As to conditions: Homo sapiens, 24 h treatment, mean ± SD of triplicate. On the procedure:
as §1

The test system of data set [4] is MDA-MB-231. As to the kind of experiment: MTT cytotoxicity assay, MDA-MB-231. Type of data set: cell-based. As to conditions: Homo sapiens, 24 h treatment, mean ± SD of triplicate. The method, then:
as §1

Data set [5] has as its system HCT-116, MDA-MB-231, HeLa, and MCF-7. The data set can be described thus: MTT cytotoxicity assay, ranges stated over several cell lines. The format is cell-based. As to conditions: Homo sapiens, HCT-116, MDA-MB-231, HeLa, MCF-7; range; read-out: IC50 values, range over the cancer cell lines tested. On the procedure:
as §1

Data set [6] can be described thus: MTT cytotoxicity assay, normal cell line WI-38. The format is cell-based, human. As to conditions: human, WI-38 cells (normal human lung fibroblasts), normal (non-cancer) cell line, 24 h treatment. On the procedure: as §1

The structures appear in SMILES notation.

Consider `COc1ccc(C(=O)/C=C/c2ccc(OCc3ccccc3)cc2)cc1` [Compound 4s, (E)-3-(4-(Benzyloxy)phenyl)-1-(4-methoxyphenyl)prop-2-en-1-one], for which the IC50 was 64.2 ± 3.5 µM in data set [1] (Homo sapiens, MCF7, 24 h); 73.5 ± 3.9 µM in data set [2]; 87 ± 4.3 µM in data set [3]; 82.4 ± 4.1 µM in data set [4]; 61.9 to 91.7 µM in data set [5]. The same compound had an IC50 at 24 h in data set [6] of 22.3 ± 1.6 µM.
Turning to `COc1ccc(/C=C/C(=O)c2cccc(OC)c2)cc1` [Compound 4l, (E)-1-(3-Methoxyphenyl)-3-(4-methoxyphenyl) prop-2-en-1-one], the IC50 was 75.4 ± 3.8 µM in data set [1] (Homo sapiens, MCF7, 24 h); 84 ± 4.2 µM in data set [2]; 88.8 ± 4.6 µM in data set [3]; 91.7 ± 4.5 µM in data set [4]; 61.9 to 91.7 µM in data set [5]. In data set [6], this compound came in with a half-maximal inhibitory concentration (IC50) at 24 h of 16.2 ± 1.3 µM.
Turning to `COc1cccc(C(=O)/C=C/c2cccc(OCc3ccccc3)c2)c1` [Compound 4p, (E)-3-(3-(Benzyloxy)phenyl)-1-(3-methoxyphenyl)prop-2-en-1-one], the half-inhibitory concentration (IC50) in data set [1] (Homo sapiens, MCF7, 24 h) is 57.1 ± 3.2 µM; in data set [2], 39.8 ± 2.4 µM; in data set [3], 45.2 ± 2.4 µM; in data set [4] it was 68.4 ± 3.7 µM; in data set [5], 23.5 to 74.5 µM. This compound gave a half-inhibitory concentration (IC50) at 24 h in data set [6] of 92.1 ± 4.9 µM.
Consider `COc1cccc(C(=O)/C=C/c2ccccc2)c1` [Compound 4j, (E)-1-(3-Methoxyphenyl)-3-phenylprop-2-en-1-one], for which the concentration for half-maximal inhibition (IC50) in data set [1] (Homo sapiens, MCF7, 24 h) was 18.8 ± 1.5 µM; in data set [2] it was 24.6 ± 1.7 µM; in data set [3], 34.9 ± 2.2 µM; in data set [4] it was 29.3 ± 1.9 µM. In addition, half-maximal inhibition in data set [6] (IC50 at 24 h) required 78.2 ± 3.9 µM.
`O=C(/C=C/c1ccc(OCc2ccccc2)cc1)c1ccccc1` [Compound 4i, (E)-3-(4-(Benzyloxy)phenyl)-1-phenylprop-2-en-1-one]: the concentration for half-maximal inhibition (IC50) is 85.5 ± 4.3 µM in data set [1]; > 100 µM in data set [1] (Homo sapiens, MCF7, 24 h); > 100 µM in data set [2]; > 100 µM in data set [3]; > 100 µM in data set [4]. Further, the IC50 at 24 h in data set [6] is > 100 µM.
As for `COc1ccc(C(=O)/C=C/c2ccc(Cl)cc2)cc1` [Compound 4n, (E)-3-(4-Chlorophenyl)-1-(4-methoxyphenyl)prop-2-en-1-one], the IC50 in data set [1] (Homo sapiens, MCF7, 24 h) is 37 ± 2.3 µM; in data set [2], 66.1 ± 3.8 µM; in data set [3], 74.5 ± 3.9 µM; in data set [4] it was 48.6 ± 2.8 µM; in data set [5] it was 23.5 to 74.5 µM. This compound also gave a 50% inhibitory concentration (IC50) at 24 h in data set [6] of 61.5 ± 3.4 µM.
`COc1ccc(C(=O)/C=C/c2ccccc2)cc1` [Compound 4m, (E)-1-(4-Methoxyphenyl)-3-phenylprop-2-en-1-one]: the IC50 in data set [1] (Homo sapiens, MCF7, 24 h) was 33 ± 2 µM; in data set [2] it was 59.6 ± 3.5 µM; in data set [3], 63.6 ± 3.7 µM; in data set [4], 45.9 ± 2.6 µM; in data set [5], 23.5 to 74.5 µM. Also, the IC50 at 24 h in data set [6] amounted to 87.6 ± 4.6 µM.
For the compound `COc1ccc(C(=O)/C=C/c2cccc(OCc3ccccc3)c2)cc1` [Compound 4r, (E)-3-(3-(Benzyloxy)phenyl)-1-(4-methoxyphenyl)prop-2-en-1-one], the IC50 is 39.3 ± 2.4 µM in data set [1] (Homo sapiens, MCF7, 24 h); 62.6 ± 3.7 µM in data set [2]; 57 ± 3.2 µM in data set [3]; 51.8 ± 2.9 µM in data set [4]; 23.5 to 74.5 µM in data set [5]. Moreover, the IC50 at 24 h in data set [6] is > 100 µM.
Consider `COc1ccc(/C=C/C(=O)c2ccc(OC)cc2)cc1` [Compound 4o, (E)-1,3-bis(4-Methoxyphenyl)prop-2-en-1-one], for which the IC50 is 61.9 ± 3.4 µM in data set [1] (Homo sapiens, MCF7, 24 h); 89.2 ± 4.5 µM in data set [2]; > 100 µM in data set [3]; 73.5 ± 4 µM in data set [4]; 61.9 to 91.7 µM in data set [5]. Moreover, the IC50 at 24 h in data set [6] was 24.2 ± 1.7 µM.
On to `COc1cccc(C(=O)/C=C/c2ccc(Cl)cc2)c1` [Compound 4k, (E)-3-(4-Chlorophenyl)-1-(3-methoxyphenyl)prop-2-en-1-one], for which the IC50 was > 100 µM in data set [1] (Homo sapiens, MCF7, 24 h); > 100 µM in data set [2]; > 100 µM in data set [3]; > 100 µM in data set [4]. The IC50 at 24 h in data set [6] was > 100 µM.

The IC50 is the concentration needed to halve the response being measured.
